“Also recorded” adds a separate entry of the source.
Experiments:
[1] = tested on: polarized human Caco-2-BBE cells; experiment: Nitric oxide production in polarized Caco-2-BBE cells; format: cell-based; settings: 24 h exposure, 5% LGG supernatant or single metabolites
Description: Lastly, NOS2 activity was analyzed in cells treated with an LGG supernatant (orange bar, FIG. 15).

ZO-1 (Tjp1) and Ocln = experiment: Intestinal organoids treated with LPS and metabolites: tight junction (TJ) expression, RT-qPCR and immunostaining; format: cell-based, mouse
Description: (§1) Intestinal organoids were isolated as previously described (Das et al., 2015; Pearce et al., 2018). Briefly, crypts were isolated from small intestine of conventional house C57BL/6 male mice (Taconic Laboratories, Hudson, NY) by shaking in isolation buffer (2 mM EDTA in PBS), then, crypts were harvested, processed, and suspended in crypt culture medium (CCM), which consisted of advanced DMEM/F12 (Life Technologies, Carlsbad, CA) supplemented with serum-free B27 (1:50; Life Technologies), N2 (1:100; Life Technologies), N-acetylcysteine (1 mM; Sigma-Aldrich, St. Louis, MO), recombinant murine epithelial growth factor (EGF, 50 ng/ml; Peprotech, Rocky Hill, NJ), Noggin (100 ng/ml; Peprotech), R-Spondin (500 ng/ml; Peprotech), Glutamax-I supplement (1:100; Life Technologies), penicillin/streptomycin (500 μg/ml; Life Technologies), and HEPES ([…]; Life Technologies). Crypts were resuspended in 70% Matrigel (density ˜450 crypts per dome, 2 domes per well in 24-well plate) and allowed to solidify at 37° C. for 20 min. CCM (1.5 mL) was then added to each well. Cultures were incubated in a humidified incubator at 37° C., and CCM was changed daily. Intestinal organoid treatment with LPS and metabolites
(§2) We had 2 series of metabolite-treated organoid experiments, i.e., 1) organoid from conventional C57BL6 mice and 2) Ocln KO and littermate WT control as a gift from Prof. Jerrold Turner (Harvard University). […] Seeding is designated as day 0. On day 3 of culture, the existing media in the wells were completely removed before adding treatments. LPS (1 μg/mL) with or without metabolites, i.e., IPA (0.1 mM) (Li et al., 2021), IAM (200 μM) (Vyhlidalova et al., 2020), MNA (12 ng/ml) (Liu et al., 2015), CARN (20 mM) (Boldyrev et al., 2013) or ASA (1 μM) (Erez et al., 2011) were each added in CCM at known physiological concentrations, incubated for 48 hours, thereafter, organoid was harvested for RNA extraction, and paraformaldehyde fixation for immunostaining.
(§3) Total RNA was extracted from the intestinal organoids using a commercially available kit (RNeasy Microkit; Qiagen, MD, Cat. #74004) following manufacturer's instructions. mRNA samples were converted to cDNA using Bio-Rad's iScript Reverse Transcription Supermix for RT-qPCR (Bio-Rad Laboratories, Hercules, CA, Cat. #1708840). cDNA was then used for RT-qPCR (Mx3000P. Stratagene, La Jolla, CA) to analyze several genes using Maxima SYBR Green qPCR Master Mix (Thermo Fisher Scientific, Waltham, MA) and primers (Integrated DNA Technologies, Coralville, IA). Thermal profile for three-step cycling was 10 min at 95° C. for initial denaturation; then 40 cycles of 15 sec at 95° C. for denaturation, 30 sec at 65° C. for annealing, and 30 sec at 75° C. for extension. Primers used are as follows: β-actin (Actb), forward 5′-[…]-3′ (SEQ ID NO: 5), reverse 5′-[…]-3′ (SEQ ID NO: 6); ZO-1 (Tjp1), forward 5′-[…]-3′ (SEQ ID NO: 7), reverse 5′-[…]-3′ (SEQ ID NO: 8), Ocln, forward 5′-[…]-3′ (SEQ ID NO: 9), reverse 5′-[…]-3′ (SEQ ID NO: 10); Lyz1, forward 5′-ATGGCTACCGTGGTGTCAAG-3′ (SEQ ID NO: 11), reverse 5′-CGGTCTCCACGGTTGTAGTT-3′ (SEQ ID NO: 12); Tff3, forward 5′-TAATGCTGTTGGTGGTCCTG-3′ (SEQ ID NO: 13), reverse 5′-CAGCCACGGTTGTTACACTG-3′ (SEQ ID NO: 14). All samples were normalized to β actin expression. Gene expression levels are depicted as fold change relative to the control group.
(§4) Immunocytochemistry followed earlier work (Pearce et al., 2018). Briefly, organoids were extracted from Matrigel by using cell recovery solution (Corning, Cat. No. 354253), processed then fixed in 4% paraformaldehyde for 15 min and dehydrated with 70% ethanol and kept in 4° C. until embedded in paraffin. On the day of embedding, organoids were gently spun down to a pellet (250 g for 5 min), then the supernatant was removed, the pellet resuspended in agarose and embedded in paraffin. […]

[2] = tested on: Tff3 and Lyz1 (goblet and Paneth cells); experiment: Organoids: goblet and Paneth cell transcripts (Tff3, Lyz1) and cell numbers; format: cell-based, mouse; settings: enteroids
Description: as §2, §3, §4

[3] = tested on: mouse intestinal organoids; experiment: Organoid permeability assay with 4 kDa FITC-dextran, LPS with or without metabolites; format: cell-based; settings: ex vivo organoids
Description: as §1, §2
Permeability assays followed earlier work (Pearce et al., 2018). Briefly, all media were removed and then organoid were incubated with CCM containing 4 kDa FITC-dextran (Sigma-Aldrich, St. Louis, MO, Cat. #46944) at a final concentration of 1.25 µM for 30 minutes at 37° C. and at 5% CO2. […] A fluorescent microscope (Nikon Eclipse TI, NY) at a 10× magnification was used to observe and capture the fluorescence within the lumen of the organoids. Using the same area as the lumen, three different background samples are measured randomly around the lumen. The three background samples measured are averaged and then subtracted from the measured fluorescence of the lumen. […] The quantification of the fluorescence was conducted using the ImageJ 1.53 (NIH, Bethesda, MD).

[4] = tested on: human-derived Caco-2 cells; experiment: In vitro transwell screening in Caco-2 cells, barrier disrupted by Clostridium difficile toxin (TEER and FITC-dextran permeability); format: cell-based; settings: applied in the basolateral compartment, TOX
[5] = tested on: C57BL/6 mice with DSS-induced mild colitis; experiment: DSS induced mild colitis treatment with LGG metabolites (2.5% DSS); format: in vivo, mouse; settings: metabolite i.p. twice
Description: FIG. 13A-13M. IPA requires Ocln to alleviate LPS-induced leaky epithelium. FIG. 13A, experimental design. Organoids were derived from tamoxifen-inducible, intestine-specific Ocln-knockout (KO) mice generated by crossing a floxed Ocln^fl/fl with Villin-CreERT2 mice. FIG. 13B, Representative images and FIG. 13C, quantitative analysis of permeability assay. LPS was added to CCM media (basolateral side) with and without IPA […] and IAM (200 μM) (n=3 mice). *** P<0.001, compared with WT control, †P<0.05 compared with KO-control. FIG. 13D, Representative images of immunofluorescent staining of Ocln in WT control and Ocln KO conventional mice, L=lumen. MNA improves but ASA exacerbates dextran sodium sulfate (DSS)-induced leaky gut. FIG. 13E, experimental design, evaluation in vivo of metabolites (Met). Methylnicotinamide (MNA. […]) and L-argininosuccinate (ASA. 3.6 mg/kg) were administered (i.p.) twice 1-day before and 3 days after DSS treatment p.o. 4 kDa fluorescein isothiocyanate (FITC)-dextran was gavaged 4 h before sacrifice. FIG. 13F, body weight of DSS-treated mice with and without metabolites, FIG. 13G, representative images of Ocln-stained colon sections (green; left panel) and ECad (red; middle). Merged images (yellow; right panel) depict Ocln location in TJ of MNA-treated but not in DSS-only and ASA-treated colon (arrows). Quantitative fluorescent intensity of Ocln (FIG. 13H) and ECad (FIG. 13I) in the TJ, relative to DSS only controls. FIG. 13J, DSS scoring. FIG. 13K, representative H&E images of DSS, DSS+ MNA and DSS+ASA colon sections. FIG. 13L, In vivo permeability as determined by fluorescent intensity of FITC in serum. FIG. 13M, Serum level of interleukin-6.
DSS induced mild colitis treatment with LGG metabolites. To assess in vivo impact of metabolites on gut barrier function, conventional C57BL/6 mice (8 weeks of age) were administered with 2.5% dextran sodium sulfate (DSS) in drinking water to induce mild colitis. Animals were intraperitoneal injected with either PBS vehicle, 30 mg/kg methylnicotinamide chloride, or 3.6 mg/kg argininosuccinic acid dissolved in sterile PBS at Day-1 and Day 4 of the experiment. Body weight was recorded daily. At Day 7, 4 hours before sacrifice and collection of blood, animals were gavaged with 600 mg/kg with 4 kDa FITC-dextran. Blood was collected in 5% EDTA and subsequently centrifuged at 3000 g for 5 minutes for plasma collection. FITC readings were collected by diluting 25 μl of plasma in 75 μl of PBS and analyzed using a Glomax (Promega, GMMTE9032) with Ex490/Em510-570 filter cube module. Serum concentration of interleukin-6 (Cat. No. Biolegend 431304) was also determined. Ileum and colon sections were collected, fixed in 4% paraformaldehyde, processed for embedding in paraffin wax. Pathohistology of intestine was observed by routine H&E staining.

[6] = tested on: leaky gut mouse model (DSS colitis); experiment: DSS (3%) leaky gut colitis mouse model, metabolites i.p.; format: in vivo; settings: 3% DSS; i.p. every other day; listed as ASA
Description: A moderate amount of DSS (3%) creates a leaky gut model.
FIG. 23A, Analysis of plasma ovalbumin levels after oral ovalbumin gavage in mice treated with exogenous MNA or PBS. […] Analysis of fecal lipocalin levels in mice treated with PBS or MNA with or without DSS. […] Representative histology sections of mice treated with PBS or MNA with or without DSS. FIG. 23D, quantification of mouse histology sections scored for colitis index.
FIG. 24A, Analysis of zonula occludens (Tjp1) and occluding (Ocln) mRNA levels after treatment with PBS or MNA with or without DSS. FIG. 24B, Western blot analysis and quantification of Ocln protein levels after treatment with PBS or MNA with or without DSS. FIG. 24C, Quantified levels of occluding in the ileum (top) and colon (bottom) using immunofluorescence antibody staining.
Administration of DSS induces experimental colitis and disrupts gut barrier in vivo in animal models.
Exogenous MNA administration was assessed by plasma ovalbumin levels after oral ovalbumin gavage—an accepted method to determine permeability of the gut paracellular pathway. […] (FIG. 23B) Histology sections of mice treated with or without DSS and PBS or MNA were also obtained. […] Sections from several mice were also examined by a blinded observer and scored for colitis index.
(FIG. 24B) Using immunofluoresce antibody staining, quantified levels of occludin in the ileum and colon were also analyzed.

ileal transcriptome = experiment: Germ-free mice monocolonized with LGG, trp+ or trp− diet: bulk RNA-sequencing of ileum; format: in vivo, mouse
Description: Gnotobiotic study. After 5 days of acclimatization under GF conditions, two cages of GF mice (n=10) were fed with a trp-free diet and another 2 cages with a trp-sufficient diet. Purified diets were sterilized by double-irradiation (Research Diets, New Brunswick, NJ) then stored in −80° C. Two weeks afterward, five mice from the trp-deficient and five from trp-sufficient were gavaged with LGG and the remaining mice with sterile PBS. Body weight and food intake were recorded weekly. Fecal pellets were collected aseptically one week before, then one and three weeks post inoculation, then stored (−80° C.) for later analysis. Feces were also collected twice a week then analyzed immediately to monitor gnotobiotic status. All mice were sacrificed three weeks post inoculation, then serum, liver, ileum and colon collected.
For LGG colonization, one cage of GF trp− mice and one cage of GF trp+ were orally gavaged with 200 μl of LGG (10^8 CFU/ml) in sterile PBS (LGG trp− and LGG trp+, respectively) while control GF received 200 μl sterile PBS (PBS trp− and PBS trp+).
Total RNA was isolated from mouse ileum then purified with RNeasy Plus universal kit (Qiagen, Hilden, Germany) following manufacturer's instructions. […] For global assessment of mouse RNA levels, total RNA was subjected to two rounds of poly(A) selection using oligo (dT) 25 magnetic beads (New England Biolabs [NEB], Ipswich, MA). Illumina-compatible RNA-seq libraries were constructed using the NEBNext Ultra II RNA library prep with sample purification beads (Cat. No. E7775) and NEB Next Multiplex Oligos for Illumina (dual index primers set 1; Cat. No. E7600) according to the manufacturer's instructions. Poly(A) selection and library quality were assessed using TapeStation 2200 (Agilent Technologies, Santa Clara, CA), and libraries were quantified using Qubit 4.0 fluorometer (Thermo Fisher, Waltham, MA). The prepared libraries were sequenced on an Illumina NextSeq 500 instrument (Illumina, San Diego, CA). CLC Genomics Workbench version 20.0.4 (Qiagen, Venlo, Netherlands) was used for RNA-seq analysis. […]

N=C(N)NCCC[C@H](N)C(=O)O [Arginine] was tested, and the “NO production (fluorescence intensity)” value [1] was “NO production increases”.
With NCCC(=O)N[C@@H](Cc1cnc[nH]1)C(=O)O [Carnosine, carnosine] the “gene expression of Ocln” value (ZO-1 (Tjp1) and Ocln; ex vivo, in the presence of the barrier disruptor) was “increased gene expression of Ocln”, the “TJ expression at the protein and mRNA levels” value (ZO-1 (Tjp1) and Ocln; in the presence of LPS (1 μg/mL), 48 hr) was “increased TJ expression” and the “goblet and Paneth cell transcripts and cell numbers” value [2] was “reduced goblet and Paneth cell transcripts as well as cell numbers”. The “disruption of the gut barrier, fluorescence microscopy (FIG. 11M)” value [3] was “prevented disruption of the gut barrier”.
In the case of O=Cc1c[nH]c2ccccc12 [Indole-3-carboxaldehyde], the “TEER, indole metabolites” value [4] is reported as “more effective when applied in this compartment than in the luminal”.
With NC(=NCCC[C@H](N)C(=O)O)N[C@@H](CC(=O)O)C(=O)O [L-arginino-succinate, L-argininosuccinic acid] the “DSS-induced leaky gut (overall)” value [5] was “exacerbates”, the “E-cad abundance and localization in colonic epithelial cells” value [5] was “appeared dispersed” and the “Ocln expression in colonic epithelium” value [5] was “reduction in Ocln expression”. For the same molecule, the body weight ([5]; vs DSS alone) was “greater tendency to lose weight”, the “body weight loss and recovery in DSS leaky gut model” value [6] was “exacerbated the effects of DSS, and significantly delayed recovery; also recorded: exacerbates weight loss” and the TJ expression (ZO-1 (Tjp1) and Ocln; metabolite alone, 48 hr) was “significantly reduced TJ expression”. The “disruption of the gut barrier, fluorescence microscopy (FIG. 11M)” value [3] was “disrupted the gut”.
In the case of N[C@@H](Cc1c[nH]c2ccccc12)C(=O)O [Tryptophan], the “number of ileal transcripts affected by dietary trp” value (ileal transcriptome; GF mice) is reported as 3917, the “number of ileal transcripts affected by dietary trp” value (ileal transcriptome; LGG mono-associated mice) is reported as 5315 and the “number of transcripts affected solely by dietary trp with or without LGG” value (ileal transcriptome; mouse, in vivo) is reported as 1496.
In the case of NC(=O)NCCC[C@H](N)C(=O)O [citrulline], the “NO production (fluorescence intensity)” value [1] is reported as “NO production increases”.

From patent publication US20240350456A1, “COMPOSITIONS AND METHODS FOR DIAGNOSING AND TREATING INFLAMMATORY CONDITIONS” (RUTGERS, THE STATE UNIVERSITY OF NEW JERSEY, priority 2023, published 2024)
